From patent US4748161A, “Triterpenyl esters of organic acids and hypolipidemic agents composed of them” (Amano Pharmaceutical Co., Ltd., priority 1984, dated 1988)
Several values for one entry are separate records, joined by “and”; a condition that tells them apart may be missing. Equal entries are not always repeated.

System: serum lipids and serum lipid hydroperoxide
Assay: Pharmacological test method A for anti-hyperlipidemic activity (serum lipids, 2 weeks feeding)
Assay type: in vivo, male Wistar strain rats
Details: for AI [(TC - HDL-C)/(HDL-C)] / HDL-C in serum / LPO in serum / PL in serum / TC in serum / TG in serum: 1% in hyperlipidemic diet, 2 weeks
Protocol: Male Wistar strain rats (100±lg, each 10 rats were formed into a group) were used as test animals. Diet for the control group was prepared by thorough mixing of 20% casein, 62.5% glucose, 10% hydrogenated coconut oil, 2% agar powder, 4% vitamin-containing salt mixture, 1% cholesterol, and 0.5% cholic acid (this composition is described by Fukushima et al, in "Yakugaku Zassi", 89, No. 6, pp. 857-862 (1962)). Diet for the test groups was prepared by good mixing of 1% each of cycloartenol, 24-methylenecycloartanol, and cyclobranol with the control group's diet. Each rat was kept in a cage at a constant temperature of 23±1° C. and a constant R.H. of 55±5% for 2 weeks, during which 10 g/day of the prescribed was given. Finally the rats were fasted from food except water for 16 hours (from 4 p.m. of the 14th test day to 8 a.m. of the 15th test day), and under anesthesia with pentbarbital sodium (tradename: Nembutal), blood was taken from each rat through the descending abdominal arota. Then, TC, HDL-C, TG, PL, and LPO in the serum were measured in the manner that will be described below.
A TC kit-K (supplied by Nippon Shoji Kaisha, Ltd.) was used. The principle of this determination is as follows: The ester of cholesterol in the serum is hydrolyzed with cholesterol-ester hydrolase into free cholesterol and fatty acids. All the free cholesterol is oxidized with cholesterol oxydase to form Δ^4 -cholestenone and hydrogen peroxide. Phenol and 4-aminoantipyrin are oxidatively condensed together by the formed hydrogen peroxide and peroxydase. The produced red quinone coloring matter is measured by colorimetry for absorbance at 500 nm using a spectrophotometer, thereby determining the TC:
The color-developing liquid (3.0 ml) is well mixed with the sample serum (0.02 ml). The mixture once heated at 37° C. for 15 minutes, is measured for absorbance at 500 nm with a spectrophotometer. The found absorbance is denoted by EA. On the other hand, the color-developing liquid (3.0 ml) is well mixed with the standard solution. The mixture is treated and measured for absorbance at 500 nm in the same manner as the above. This found absorbance is denoted by ES. Both EA and ES are determined with reference to the value of the blank test conducted using the color-developing liquid (3.0 ml) alone. [formula]
An HDL-C kit-N (supplied by Nippon Shoji Kaisha, Ltd.) was used. […] (VLDL) and lo density lipoprotein (LDL) in the serum is precipitated by the action of heparin. The precipitate is separated by centrifugation. High density lipoprotein (HDL) is dissolved in the separated supernatant. Esters of cholesterol in this fraction is hydrolyzed with cholesterol-ester hydrolase into free cholesterol and fatty acids. All the free cholesterol is oxidized with cholesterol oxydase to form Δ^4 -cholestenone and hydrogen peroxide. Phenol and 4-aminoantipyrine are oxidatively condensed together by the formed hydrogen peroxide and peroxydase. The produced red quinone coloring matter is measured by colorimetry for absorbance at 500 nm using a spectrophotometer, thereby determining the HDL-C.
A PL kit-K (supplied by Nippon Shoji Kaisha, Ltd.) was used for the determination. Lecithin, sphingomyelin, and lysolecithin are decomposed by phospholipase D into choline and phosphatidic acid, N-acylsphingosyl phosphate, or lysophosphatidic acid, respectively. The resulting choline is quantitatively decomposed by choline oxydase into hydrogen peroxide and betaine. With this hydrogen peroxide, and aid of peroxydase, phenol and 4-aminoantipyrin are condensed into red quinone pigment, then the absorbance at 500 nm of which is measured with a spectrophotometer, thereby determining the PL.
Serum TG level was determined by means of a triglyceride test kit (supplied by Wako Pure Chemical Industries, Ltd.) in which acetylacetone is used for a reagent, in the following manner: Serum proteins are precipitated, when isopropyl alcohol and the sample serum are mixed. […]

Compound	AI [(TC - HDL-C)/(HDL-C)]	HDL-C in serum	LPO in serum	PL in serum	TC in serum	TG in serum	AI % of diff. (versus control group)	AI Diff. (versus control group)	HDL-C % of diff. (versus control group)	HDL-C Diff. (versus control group)	LPO % of diff. (versus control group)	LPO Diff. (versus control group)	PL % of diff. (versus control group)	PL Diff. (versus control group)	TC % of diff. (versus control group)	TC Diff. (versus control group)	TG % of diff. (versus control group)	TG Diff. (versus control group)	AI Diff. (Table 2, versus control group)
CCOc1cc(C(=O)OC2CCC34CC35CCC3(C)C(C(C)CCC(C)=C(C)C)CCC3(C)C5CCC4C2(C)C)ccc1O (stereo not drawn) [Example 62, cyclobranyl-3-ethoxy-4-hydroxybenzoate]	0.474	108.2 mg/dL	1.94 nmol/mL	156.5 mg/dL	159.5 mg/dL	32.0 mg/dL	-52.7%	-0.528	+12.5%	+12.0 mg/dl	-16.8%	-0.39 nmol/mL	-13.5%	-24.4 mg/dL	17.2%	-33.1 mg/dL	-3.6%	-1.2 mg/dL	–
CC(C)=CCCC(C)C1CCC2(C)C3CCC4C(C)(C)C(OC(=O)c5cccc(O)c5)CCC45CC35CCC12C (stereo not drawn) [Example 12, cycloartenyl-m-hydroxybenzoate]	1.571	58.5 mg/dL	2.03 nmol/mL	140.4 mg/dL	150.4 mg/dL	24.0 mg/dL	-14.9%	-0.276	-0.3%	-0.2 mg/dL	-13.2%	-0.31 nmol/mL	-5.4%	-8.0 mg/dL	-10.0%	-16.7 mg/dL	-3.2%	-0.8 mg/dL	–
CCCCC/C=C\C/C=C\CCCCCCCC(=O)OC1CCC23CC24CCC2(C)C(C(C)CCC=C(C)C)CCC2(C)C4CCC3C1(C)C (stereo not drawn) [Example 25, cycloartenyl linolate]	0.705	92.3 mg/dL	1.67 nmol/mL	144.6 mg/dL	157.4 mg/dL	34.0 mg/dL	-42.3%	-0.517	+6.7%	+5.8 mg/dl	-25.6%	-0.57 nmol/mL	-16.2%	-28.0 mg/dL	-18.1%	-34.8 mg/dL	-6.2%	-2.3 mg/dL	–
COc1cc(C(=O)OC2CCC34CC35CCC3(C)C(C(C)CCC(C)=C(C)C)CCC3(C)C5CCC4C2(C)C)ccc1O (stereo not drawn) [Example 37, cyclobranyl-4-hydroxy-3-methoxybenzoate]	0.460	110.4 mg/dL	1.91 nmol/mL	155.4 mg/dL	161.2 mg/dL	31.0 mg/dL	-54.1%	-0.542	+14.8%	+14.2 mg/dl	-18.0%	-0.42 nmol/mL	-14.1%	-25.5 mg/dL	-16.3%	-31.4 mg/dL	-6.6%	-2.2 mg/dL	–
COc1cc(C(=O)OC2CCC34CC35CCC3(C)C(C(C)CCC=C(C)C)CCC3(C)C5CCC4C2(C)C)ccc1O (stereo not drawn) [Example 29, cycloartenyl-4-hydroxy-3-methoxybenzoate]	0.611	101.0 mg/dL	1.95 nmol/mL	160.6 mg/dL	162.7 mg/dL	32.7 mg/dL	-39.0%	-0.391	+5.0%	+4.8 mg/dl	-16.3%	-0.38 nmol/mL	-11.2%	-20.3 mg/dL	-15.5%	-29.9 mg/dL	-1.5%	-0.5 mg/dL	–
C=C(CCC(C)C1CCC2(C)C3CCC4C(C)(C)C(OC(=O)c5cccc(N)c5)CCC45CC35CCC12C)C(C)C (stereo not drawn) [Example 100, 24-Methylenecyloartanyl ester of m-aminobenzoic acid]	0.766	90.1 mg/dL	1.68 nmol/mL	155.6 mg/dL	159.1 mg/dL	34.3 mg/dL	-37.3%	-0.456	+4.2%	+3.6 mg/dl	-25.2%	-0.56 nmol/mL	-10.2%	-17.6 mg/dL	-17.2%	-33.1 mg/dL	-5.5%	-2.0 mg/dL	–
cycloartenyl-3,4-diacetoxycinnamate [Example 1]	1.410	72.0 mg/dL	2.03 nmol/mL	173.7 mg/dL	173.5 mg/dL	38.0 mg/dL	-7.1%	–	-11.6%	-9.5 mg/dL	-10.6%	-0.24 nmol/mL	+0.06%	+0.1 mg/dl	-15.4%	-31.6 mg/dL	+10.9%	+3.7 mg/dl	-1.107 mg/dL
cycloartenyl-3,4-dihydroxycinnamate [Example 2]	0.860 and 1.180	90.3 mg/dL and 89.2 mg/dL	1.98 nmol/mL and 2.05 nmol/mL	168.2 mg/dL and 170.2 mg/dL	168.0 mg/dL and 194.5 mg/dL	30.6 mg/dL and 41.3 mg/dL	–	-0.504	–	–	-12.8% and -11.2%	–	-3.1% and -5.0%	–	-18.1% and -10.4%	–	-10.9% and -3.5%	–	-0.657 mg/dL
C=C(CCC(C)C1CCC2(C)C3CCC4C(C)(C)C(OC(=O)C=Cc5ccc(O)c(O)c5)CCC45CC35CCC12C)C(C)C (stereo not drawn) [Example 82, 24-Methylenecycloartanyl ester of 3,4-dihydroxycinnamic acid]	1.228	87.9 mg/dL	2.08 nmol/mL	173.9 mg/dL	195.8 mg/dL	42.3 mg/dL	-27.1%	-0.456	+8.7%	+7.0 mg/dl	-9.8%	-0.23 nmol/mL	-3.2%	-5.8 mg/dL	-9.8%	-21.3 mg/dL	-1.2%	-0.5 mg/dL	–
